# Results published in patent publication US4397676A, “N-Phosphonomethylglycine derivatives” (Geshuri Laboratories Ltd., priority 1982, dated 1983).
# Structures can show the parent of a compound that is named as a salt.
# Legend:
# [1] = Solubility of NPMG-iminourea salts in water; assay type: physicochemical
# Protocol: SOLUBILITY OF NPMG-IMINOUREA SALTS
# NPMG Salt 20° C. (in grams)
# [2] = background statement; cited from earlier work
# various plant species = conditions: background statement; cited from earlier work
structure (smiles),measurement,setting,value
"O=C(O)CNCP(=O)(O)O [II, NPMG MONO (AMINOGUANIDINE) SALT]",water solubility (in words),[1]; in words,highly water-soluble
same,content of active materials in solutions readily prepared,[1]; water as preferred diluent,≤ 60 % by weight
"O=C(O)CNCP(=O)(O)O [NPMG, N-phosphonomethylglycine]",solubility in water and conventional organic solvents (in words),[2],relatively insoluble in water and conventional organic solvents
same,herbicidal effect (in words),various plant species,very effective phytotoxicant or herbicide
"O=C(O)CNCP(=O)(O)O [V, NPMG MONO (TETRA METHYL GUANIDINE) SALT]",Weight dissolved in 100 ml water at 20° C.,"[1]; listed as 1,1,3,3 Tetra Methyl Guanidine",165 grams
"O=C(O)CNCP(=O)(O)O [I, NPMG MONO (GUANIDINE) SALT]",Weight dissolved in 100 ml water at 20° C.,[1],15.7 grams
